Calls of active or inactive are those of the source.
Tests used:
[1] = A Cell Based Secondary Assay To Explore Cytotoxicity of Compounds that Sensitize Mycobacterium Tuberculosis to Beta-Lactam Antibiotics.; type: functional
[2] = reduction of Shn3 3'UTR-driven luciferase in osteoblasts – cell-based, Clone20 osteoblasts, firefly luciferase, cherry-picked, dose response (AID 624132); type: functional;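 further: firefly luciferase luminescence from reporter carrying the Shn3 3'UTR in osteoblasts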
[3] = Trypanosoma cruzi growth suppression in host cells – NIH3T3 host cells, beta-gal luminescence, confirmation (AID 2044); type: functional, cell-based;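 further: intracellular parasites grown in NIH/3T3 mouse fibroblasts as host cells; luminescent beta-galactosidase reporter signal from transgenic T. cruzi replicating inside host cells; inhibitors lower the luminescence signal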
[4] = loss of viability in HepG2 cells – cell-based, CellTiter-Glo, cherry-picked, cytotoxicity control for Shn3 inhibitor project, dose response (AID 624134); type: functional
[5] = system: Streptococcus; test: GAS UMAA2166 growth inhibition – luminescence, BacTiterGlo, counter-screen for streptokinase expression inhibitor project, dose response (AID 1915); type: functional, organism-based;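 further: potency for reduction of bacterial viability or growth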
[6] = non-specific 3'UTR reporter inhibition in Clone20-Shn3RL – cell-based, Renilla luciferase, cherry-picked, counter-screen for Shn3 inhibitor project, dose response (AID 624133); type: functional
[7] = system: Streptococcus sp. 'group A'; test: Streptococcus pyogenes SK(-)GAS viability under kanamycin – luminescence, BacTiterGlo, confirmation, counter-screen for streptokinase expression inhibitor project, dose response (AID 1900); type: functional, organism-based
[8] = molecular target: T1, Streptokinase A (Streptococcus pyogenes serotype M1, UniProt P10520); test: viability-normalized secreted streptokinase activity reduction – plasminogen activation absorbance, OD405, dose response (AID 1914); type: functional, Streptococcus pyogenes M1 GAS;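 further: secreted streptokinase activity via plasminogen activation per viability signal from cell pellet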
T1 sequence (P10520 whole entry): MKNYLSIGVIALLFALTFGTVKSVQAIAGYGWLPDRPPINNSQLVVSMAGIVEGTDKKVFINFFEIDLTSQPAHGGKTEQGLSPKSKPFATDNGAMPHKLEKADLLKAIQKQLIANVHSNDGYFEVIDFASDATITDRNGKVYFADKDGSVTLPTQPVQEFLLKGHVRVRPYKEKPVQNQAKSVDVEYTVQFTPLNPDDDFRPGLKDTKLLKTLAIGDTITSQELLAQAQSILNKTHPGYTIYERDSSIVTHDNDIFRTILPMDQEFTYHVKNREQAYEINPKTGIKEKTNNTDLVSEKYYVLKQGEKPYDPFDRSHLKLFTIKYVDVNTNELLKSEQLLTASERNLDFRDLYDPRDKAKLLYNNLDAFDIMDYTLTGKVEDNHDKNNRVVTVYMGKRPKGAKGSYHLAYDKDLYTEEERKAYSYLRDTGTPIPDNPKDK

[9] = molecular target: T2, Short transient receptor potential channel 4 (Mus musculus, UniProt Q9QUQ5); test: block of DAMGO-driven TRPC4 calcium entry – cell-based, HEK293 TRPC4/mu-opioid, Fluo-4 calcium, dose response (AID 434942); type: functional;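 further: potency of inhibitors blocking the TRPC4 calcium response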
T2 sequence (Q9QUQ5 whole entry): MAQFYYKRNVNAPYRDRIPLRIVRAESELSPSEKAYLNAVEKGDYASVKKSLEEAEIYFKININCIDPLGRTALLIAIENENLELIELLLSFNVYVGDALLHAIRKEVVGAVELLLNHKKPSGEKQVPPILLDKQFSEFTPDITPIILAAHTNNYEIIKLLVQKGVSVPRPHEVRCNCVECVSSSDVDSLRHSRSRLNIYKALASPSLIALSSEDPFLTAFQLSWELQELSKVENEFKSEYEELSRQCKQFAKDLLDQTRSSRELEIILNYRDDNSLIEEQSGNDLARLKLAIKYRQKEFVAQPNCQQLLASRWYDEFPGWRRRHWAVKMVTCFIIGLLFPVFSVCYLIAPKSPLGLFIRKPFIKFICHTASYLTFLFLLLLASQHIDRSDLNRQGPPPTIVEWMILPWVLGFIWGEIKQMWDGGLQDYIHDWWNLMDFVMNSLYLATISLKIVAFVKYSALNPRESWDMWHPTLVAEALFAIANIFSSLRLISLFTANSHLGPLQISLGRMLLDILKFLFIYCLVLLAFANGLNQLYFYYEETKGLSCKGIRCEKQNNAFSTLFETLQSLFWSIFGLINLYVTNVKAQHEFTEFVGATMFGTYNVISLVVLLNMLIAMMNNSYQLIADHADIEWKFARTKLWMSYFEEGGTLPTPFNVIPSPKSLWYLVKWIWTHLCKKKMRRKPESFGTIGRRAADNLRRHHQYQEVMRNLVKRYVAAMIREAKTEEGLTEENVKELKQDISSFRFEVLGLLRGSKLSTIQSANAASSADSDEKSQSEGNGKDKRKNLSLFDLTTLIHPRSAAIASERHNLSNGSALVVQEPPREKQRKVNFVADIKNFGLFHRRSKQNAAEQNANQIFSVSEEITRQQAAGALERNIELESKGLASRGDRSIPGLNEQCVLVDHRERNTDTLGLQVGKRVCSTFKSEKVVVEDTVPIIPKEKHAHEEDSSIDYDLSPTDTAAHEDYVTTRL

[10] = NIH3T3 cell viability loss – ATP luminescence, mouse fibroblasts, counter-screen, dose response (AID 2010); type: functional, cell-based;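 further: cells exposed to compound for about 90 hours before reading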
[11] = system: Vero; test: viability of Vero cells under compound – cytotoxicity control for flavivirus capping enzyme inhibitors (AID 588742); type: functional; details: Chlorocebus sabaeus
[12] = molecular target: Genome polyprotein (dengue virus type 2, UniProt P29990); test: flavivirus cap methylation enzyme inhibition – biochemical, confirmation dose response, primary screen (AID 588689); type: functional
[13] = molecular target: T3, Polyadenylate-binding protein 1 (Homo sapiens, UniProt P11940); test: MLLE binding blockers, Cy5 peptide tracer – biochemical, fluorescence polarization, Cy5-PAM2 peptide, secondary, miRNA deadenylation inhibitor project, dose response (AID 602260); type: functional; details: read-out: IC50_Mean
[14] = molecular target: T3, Polyadenylate-binding protein 1; test: MLLE domain peptide-binding blockers, IC50 – biochemical, fluorescence polarization, FITC-PAM2 peptide, dose response (AID 602259); type: functional; details: read-out: IC50_Mean
[15] = molecular target: T4, Corticotropin-releasing factor receptor 2/Corticotropin-releasing factor-binding protein (Homo sapiens, UniProt P24387+Q13324); test: activators of CRF receptor 2 with binding protein – uHTS hits, confirmation (AID 602473); type: functional; details: read-out: EC50_Mean
T4 sequence (Q13324 whole entry): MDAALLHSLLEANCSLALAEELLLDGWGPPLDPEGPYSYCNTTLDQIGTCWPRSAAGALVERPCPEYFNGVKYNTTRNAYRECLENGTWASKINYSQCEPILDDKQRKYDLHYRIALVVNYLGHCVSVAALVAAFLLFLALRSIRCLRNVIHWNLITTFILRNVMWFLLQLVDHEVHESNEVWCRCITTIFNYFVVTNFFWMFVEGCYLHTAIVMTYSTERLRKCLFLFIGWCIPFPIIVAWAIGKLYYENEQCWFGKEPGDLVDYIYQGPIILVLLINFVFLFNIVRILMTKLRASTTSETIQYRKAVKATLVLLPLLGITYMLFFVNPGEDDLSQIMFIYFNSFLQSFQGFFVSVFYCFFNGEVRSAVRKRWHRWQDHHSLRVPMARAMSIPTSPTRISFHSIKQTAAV
T4 sequence (P24387 whole entry): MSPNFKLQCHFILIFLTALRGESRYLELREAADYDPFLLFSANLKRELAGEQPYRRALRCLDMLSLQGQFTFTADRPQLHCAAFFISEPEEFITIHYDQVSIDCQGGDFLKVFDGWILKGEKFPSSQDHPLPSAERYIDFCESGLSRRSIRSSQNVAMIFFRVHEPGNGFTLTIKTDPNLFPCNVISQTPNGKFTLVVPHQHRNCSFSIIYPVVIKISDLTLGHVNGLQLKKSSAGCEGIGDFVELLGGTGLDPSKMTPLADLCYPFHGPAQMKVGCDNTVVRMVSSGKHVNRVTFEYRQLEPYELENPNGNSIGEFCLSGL

[16] = molecular target: T4, Corticotropin-releasing factor receptor 2/Corticotropin-releasing factor-binding protein; test: Dose Response confirmation of uHTS hits for small molecule antagonists of the CRF-binding protein and CRF-R2 receptor complex.; type: functional; details: read-out: IC50_Mean
[17] = blockers of CRF-binding protein–CRF-R2 complex – cell-based, uHTS hits, 384-well, dose response (AID 651639); type: functional, Homo sapiens; details: read-out: IC50_Mean
[18] = molecular target: Eukaryotic translation initiation factor 4E (Mus musculus, UniProt P63073); test: blockers of eIF4G binding by eIF4E – biochemical, TR-FRET, dose response (AID 855); type: functional;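 further: potency for disrupting eIF4E binding to eIF4GI seen as loss of FRET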
Eukaryotic translation initiation factor 4E, sequence (P63073 whole entry): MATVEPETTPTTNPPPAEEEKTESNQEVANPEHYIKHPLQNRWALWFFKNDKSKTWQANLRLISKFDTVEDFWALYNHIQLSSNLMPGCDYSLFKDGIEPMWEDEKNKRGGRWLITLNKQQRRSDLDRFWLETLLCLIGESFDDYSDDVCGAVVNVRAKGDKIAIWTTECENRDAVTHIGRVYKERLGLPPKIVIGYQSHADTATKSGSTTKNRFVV

T3 sequence (P11940 whole entry, the tested form may be a part): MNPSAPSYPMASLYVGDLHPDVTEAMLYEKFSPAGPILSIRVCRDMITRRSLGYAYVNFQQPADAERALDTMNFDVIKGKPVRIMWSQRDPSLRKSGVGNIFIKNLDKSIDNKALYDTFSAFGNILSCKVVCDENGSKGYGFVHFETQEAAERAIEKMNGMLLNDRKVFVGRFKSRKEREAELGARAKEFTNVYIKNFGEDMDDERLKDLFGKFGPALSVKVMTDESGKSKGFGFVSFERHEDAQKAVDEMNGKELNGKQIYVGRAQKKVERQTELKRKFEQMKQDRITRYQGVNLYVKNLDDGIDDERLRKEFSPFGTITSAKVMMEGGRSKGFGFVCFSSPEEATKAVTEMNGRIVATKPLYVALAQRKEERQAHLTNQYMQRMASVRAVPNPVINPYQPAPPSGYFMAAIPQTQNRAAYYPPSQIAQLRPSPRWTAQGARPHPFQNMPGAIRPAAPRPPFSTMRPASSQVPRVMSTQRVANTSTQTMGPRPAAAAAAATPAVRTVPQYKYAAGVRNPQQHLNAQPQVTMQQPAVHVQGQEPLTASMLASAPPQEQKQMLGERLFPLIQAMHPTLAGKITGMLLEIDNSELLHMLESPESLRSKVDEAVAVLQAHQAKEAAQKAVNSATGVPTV
Genome polyprotein, sequence (P29990 2492-3391 limits assumed): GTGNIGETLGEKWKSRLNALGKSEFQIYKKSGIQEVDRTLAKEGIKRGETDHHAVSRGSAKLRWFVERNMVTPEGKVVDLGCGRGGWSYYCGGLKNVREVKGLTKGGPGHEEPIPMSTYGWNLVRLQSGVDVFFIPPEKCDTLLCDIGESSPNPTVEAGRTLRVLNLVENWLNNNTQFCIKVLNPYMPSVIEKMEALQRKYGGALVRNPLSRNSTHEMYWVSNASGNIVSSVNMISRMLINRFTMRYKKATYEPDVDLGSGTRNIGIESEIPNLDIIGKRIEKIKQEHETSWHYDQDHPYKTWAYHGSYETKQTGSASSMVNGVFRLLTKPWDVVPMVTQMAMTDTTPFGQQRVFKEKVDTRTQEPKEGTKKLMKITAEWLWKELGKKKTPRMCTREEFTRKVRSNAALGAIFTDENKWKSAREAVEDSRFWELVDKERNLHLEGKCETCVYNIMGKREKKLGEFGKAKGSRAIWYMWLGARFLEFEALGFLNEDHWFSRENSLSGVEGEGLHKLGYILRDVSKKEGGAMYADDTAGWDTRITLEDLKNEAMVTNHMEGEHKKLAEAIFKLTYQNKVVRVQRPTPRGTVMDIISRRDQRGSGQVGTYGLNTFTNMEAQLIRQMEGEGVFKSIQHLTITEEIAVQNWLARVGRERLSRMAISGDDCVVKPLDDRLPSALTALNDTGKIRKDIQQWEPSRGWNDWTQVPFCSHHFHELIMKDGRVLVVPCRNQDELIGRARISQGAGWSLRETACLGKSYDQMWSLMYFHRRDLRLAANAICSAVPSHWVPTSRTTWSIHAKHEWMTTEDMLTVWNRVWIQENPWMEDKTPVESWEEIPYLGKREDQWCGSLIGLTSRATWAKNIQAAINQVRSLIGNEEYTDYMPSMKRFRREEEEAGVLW

With `CSc1ccc(-c2nnn(CC(=O)NCc3ccccc3)n2)cc1` the CC50 [1] was > 40 µM (active).

With `CCCn1c(NC(=O)c2ccc(Cl)c(S(=O)(=O)N3CCCC3)c2)nc2ccccc21` the AC50 [2] was 8.39 µM (active), the EC50 [3] was 2.63 µM (active) and the AC50 [4] was 38.8 µM (active). The EC50 [5] was 11.6 µM (active), the AC50 [6] was 10.9 µM (active) and the EC50 [7] was 3.14 µM (active). The EC50 [8] was > 150 µM (not active), the EC50 [9] was 1.06 µM (active) and the EC50 [10] was 6.63 µM (active).

In the case of `COc1cc(/C=C2/C(=O)ON=C2C)ccc1OCc1cccc(F)c1`, the CC50 [11] is reported as 38.2 µM (active), the IC50 [12] is reported as 24.1 µM (active) and the IC50 [13] is reported as > 66 µM (inactive). The IC50 [14] was 42.6 µM (inactive).

For `Cc1cc(CN2CCCC(C(=O)Nc3ccc(-c4nc5ccccc5[nH]4)cc3)C2)n[nH]1` (centres undefined), the EC50 [9] was 0.0003 µM (active).

With `Cc1ccc(/C=N/n2c(S)nnc2-c2cccc(Cl)c2)o1` the EC50 [15] was > 53 µM (inactive), the IC50 [16] was < 0.368 µM (active) and the IC50 [17] was > 20 µM (inactive).

In the case of `COc1ccccc1NC(=S)NCCSc1ccc(Cl)cc1`, the IC50 [18] is reported as > 64 µM (inactive).

For `COc1cc(C2C(C(=O)c3ccccc3)=C(O)C(=O)N2c2ccccn2)ccc1O` (centres undefined), the IC50 [18] was 50 µM (inactive).

For `COc1ccc(C2=NN(C(=O)c3ccccc3)C(c3ccc(OC)c(OC)c3)C2)c(O)c1` (centres undefined), the EC50 [9] was 9.44 µM (active).

For `CN(C)C(CNC(=O)CCc1nc2ccccc2s1)c1ccccc1` (centres undefined), the EC50 [9] was 0.0187 µM (active).

With `OC(COC(c1ccccc1)c1ccccc1)CN1CCN(c2cccc(Cl)c2)CC1` (centres undefined) the CC50 [1] was > 40 µM (active).

For `CC(C)=CCC/C(C)=C/C=N/NC(=O)c1ccc([N+](=O)[O-])cc1`, the CC50 [1] was > 40 µM (active).

Reference: ChEMBL document CHEMBL1201862, “PubChem BioAssay data set” (2004)
